# Data as given in patent publication US8729081B2, “Compositions and methods for treating alcohol use disorders, pain and other diseases” (VM Discovery Inc., priority 2008, dated 2014).
# Columns and labels:
# PKCε (h) = biological target: T1, PKCε (h) (Homo sapiens, UniProt Q02156); test: In vitro PKCε kinase assay (radiometric, [γ-33P-ATP], HotSpot); format: biochemical; conditions: recombinant human PKCε, 10 μM ATP; read-out: IC50 in antagonizing the PKCε
# T1 construct: host or cells: insect cells
# T1 sequence (Q02156 1-737): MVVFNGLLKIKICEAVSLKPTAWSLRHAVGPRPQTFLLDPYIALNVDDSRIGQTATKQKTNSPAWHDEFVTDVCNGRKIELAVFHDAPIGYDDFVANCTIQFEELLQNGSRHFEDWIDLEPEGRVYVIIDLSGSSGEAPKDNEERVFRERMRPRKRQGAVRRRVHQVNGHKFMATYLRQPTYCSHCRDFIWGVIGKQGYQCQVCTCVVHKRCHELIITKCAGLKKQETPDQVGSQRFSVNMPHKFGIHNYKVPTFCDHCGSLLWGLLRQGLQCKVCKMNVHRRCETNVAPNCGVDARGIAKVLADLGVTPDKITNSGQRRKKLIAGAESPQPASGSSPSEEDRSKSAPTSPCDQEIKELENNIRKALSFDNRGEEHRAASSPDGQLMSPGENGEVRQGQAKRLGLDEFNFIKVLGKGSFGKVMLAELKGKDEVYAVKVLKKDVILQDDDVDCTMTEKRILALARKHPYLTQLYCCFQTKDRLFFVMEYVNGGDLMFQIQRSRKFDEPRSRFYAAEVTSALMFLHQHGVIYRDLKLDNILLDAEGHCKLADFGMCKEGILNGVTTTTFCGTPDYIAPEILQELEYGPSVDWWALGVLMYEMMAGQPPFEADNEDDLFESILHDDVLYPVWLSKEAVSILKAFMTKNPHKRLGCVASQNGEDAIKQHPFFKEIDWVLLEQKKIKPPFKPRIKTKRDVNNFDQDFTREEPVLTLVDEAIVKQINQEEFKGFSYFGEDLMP
# Protocol: There are many in vitro commercially available and validated bioassays (Ma, H., et al, Expert Opin Drug Discov. 2008 June; 3(6): 607-621 and references therein) which can be used to characterize the activities of compounds of the present invention against PKCε protein kinase. Compounds can be tested against the activity of recombinant PKCε. In a final reaction volume of 25 μL, PKCε (h) (0.4 nM, Human recombinant protein expressed in insect cells. Mw=83.7 kDa) is incubated with kinase buffer (20 mM HEPES-HCl, pH 7.5, 10 mM MgCl2, 1 mM EGTA, 0.02% Brij35, 0.1 mM Na3VO4, 0.02 mg/ml BSA, 2 mM DTT, and 1% DMSO), 0.1 mg/mL phosphatidylserine, 10 μg/mL diacylglycerol, 20 μM S25-PKC peptide substrate (RFARKGSLRQKNV-OH, Mw=1561 Da), 10 mM MgAcetate and 10 μM [γ-33P-ATP] (specific activity approx. 500 cpm/pmol). The reaction is initiated by the addition of the MgATP mix. After incubation for 40 minutes at room temperature, the reaction is stopped by the addition of 5 μL of a 3% phosphoric acid solution. 10 μL of the reaction is then spotted onto a P30 filtermat and washed three times for 5 minutes in 75 mM phosphoric acid and once in methanol prior to drying and scintillation counting Control samples are incubated without inhibitor to measure maximal activity or with the general kinase inhibitor Staurosporine (5 μM) to measure complete inhibition. For each compound the % inhibition can be calculated by the formula, or by curve fits: % Inhibition=(Max activity−Activity with compound)/(Max activity−Activity with Control)*100. Compounds with inhibitory activity are assayed using at least 5 concentrations (1 nM-300 μM). Concentrations are adjusted to generate a complete dose-response curve. Each sample is assayed in duplicate and each experiment is repeated three times. Results are fitted by non-linear regression analysis to a sigmoidal dose-response curve with variable slope to calculate Hill slope, log IC50 and Imax values for each inhibitor, using the program Prism 5 (GraphPad Software, Inc., San Diego, Calif.).
# Kinase profiling was performed using HotSpot technology (Reaction Biology Corp. 11 Malvern, Pa., USA). This technology is a radioisotope-based P81 filter-binding assay. Compound of the present invention were dissolved in pure DMSO to make a 10 mM stock, then diluted in pure DMSO to make a serial dilution based on the IC50 ranges. PKCε (h) (0.4 nM, human recombinant protein expressed in insect cells. Mw=83.7 kDa) and substrate (20 μM peptide substrate, [RFARKGSLRQKNV]) were diluted in the reaction buffer (20 mM HEPES-HCl, pH 7.5, 10 mM MgCl2, 1 mM EGTA, 0.02% Brij35, 0.1 mM Na3VO4, 0.02 mg/ml BSA, 2 mM DTT, and 1% DMSO), and then 5 nL of compound was delivered into PKCε (h) and substrate mixture by acoustic technology using Echo 550 (LabCyte Inc., Sunnyvale, Calif.). The reaction was initiated by the addition of [γ-33P-ATP] into the reaction mixture (final concentration was 10 μM) and stopped after at least 40 min incubation at room temperature. The unreacted free 33P-ATP was washed away before detection.
# The intrinsic PKCε antagonist activity of a compound which may be used in the present invention may be determined by these assays. […] Such a result is indicative of the intrinsic activity of the compounds in use as antagonists of PKCε.
# PKCε = biological target: T2, PKCε (Homo sapiens, UniProt Q02156); test: Kinetic analysis of PKCε inhibition (initial velocity vs ATP, Lineweaver-Burk); format: biochemical
# T2 construct: host or cells: insect cells
# Protocol: FIG. 1. […] (A) Initial velocity (Vi) plotted against ATP concentration at various concentrations of the compound plus vehicle control.
# The above in vitro assay can also be used to measure the initial velocity of the kinase reaction, varying the concentrations of ATP (1-60 μM) or S25 peptide substrate (1-500 nM). Values for km and Vmax are calculated for drug- and vehicle-treated samples by linear regression analysis of double reciprocal Lineweaver Burke plots (see Examples).
smiles,measurement,setting,value
"O=C(NCCCN1CCCC1)c1ccc(/C=C2\Sc3ccccc3N(Cc3ccccc3F)C2=O)cc1 [Compound 481, 4-{(Z/E)-[4-(2-fluorobenzyl)-3-oxo-3,4-dihydro-2H-1,4-benzothiazin-2-ylidene]methyl}-N-[3-(pyrrolidin-1-yl)propyl]benzamide]",IC50,PKCε (h),10 to 1000 nM
same,mode of PKCε inhibition with respect to ATP,"PKCε; FIG. 1, kinetic analysis",non-competitively with ATP
same,Vmax and km in Lineweaver-Burk double reciprocal plot,"PKCε; FIG. 1B, various compound concentrations plus vehicle control (4 conditions)",differences in Vmax but not in km
